Results from US12486228B2, “N-substituted indoles and use as allosteric modulators of cannabinoid receptors” (priority 2018, dated 2025).
Where two headings read alike, the source gives them in different places.

Legend:
CB2 [1] = biological target: T1, CB2 (Homo sapiens, UniProt P34972); assay: cell-based; settings: for EC50 / Emax: CB2, agonist mode; for EC50: read-out: CB2 Agonist mode cAMP EC50; for Emax: read-out: CB2 Agonist mode cAMP Emax
hCB1 [2] = biological target: T2, hCB1 (Homo sapiens, UniProt P21554); assay: cell-based; design: host or cells: CHO-K1
T2 sequence (P21554 whole entry): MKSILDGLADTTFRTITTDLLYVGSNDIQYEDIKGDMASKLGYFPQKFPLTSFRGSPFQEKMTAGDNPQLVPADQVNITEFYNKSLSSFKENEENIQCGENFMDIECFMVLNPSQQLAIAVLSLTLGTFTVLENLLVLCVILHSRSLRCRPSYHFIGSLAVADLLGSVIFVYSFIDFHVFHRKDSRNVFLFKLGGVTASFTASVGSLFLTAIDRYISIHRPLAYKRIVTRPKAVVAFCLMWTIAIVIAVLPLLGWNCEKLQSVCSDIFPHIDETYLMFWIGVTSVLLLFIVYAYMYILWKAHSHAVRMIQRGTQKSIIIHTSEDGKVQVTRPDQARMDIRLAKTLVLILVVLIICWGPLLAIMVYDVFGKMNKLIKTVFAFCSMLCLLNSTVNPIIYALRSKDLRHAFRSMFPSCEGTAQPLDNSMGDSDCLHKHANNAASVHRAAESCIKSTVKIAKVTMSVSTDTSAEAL
Description: HitHunter cAMP assay: Inhibition of forskolin-stimulated cAMP was determined using the DiscoveRx HitHunter assay in hCB1R CHO-K1 cells. Cells (20,000 cells/well in low-volume 96 well plates) were incubated overnight in Opti-MEM (Invitrogen) containing 1% FBS at 37° C. and 5% CO2. Following this, Opti-MEM media was removed and replaced with cell assay buffer (DiscoveRx) and cells were co-treated at 37° C. with 10 μM forskolin and hCB1R ligands (0.10 nM-10 μM) for 30 min or 90 min cAMP antibody solution and cAMP working detection solutions were then added to cells according to the manufacturer's directions (DiscoveRx®) and cells were incubated for 60 min at room temperature. cAMP solution A was added according to the manufacturer's directions (DiscoveRx®) and cells were incubated for an additional 60 min at room temperature before chemiluminescence was measured on a Cytation 5 plate reader (top read, gain 200, integration time 10,000 ms).

CB2 [3] = biological target: T1, CB2; assay: cell-based; settings: for EC50 / Emax: CB2, agonist mode; for EC50: read-out: CB2 Agonist mode β-Arrestin EC50; for Emax: read-out: CB2 Agonist mode β-Arrestin Emax
hCB1 [4] = biological target: T2, hCB1; assay: cell-based; design: host or cells: CHO-K1 PathHunter
Description: PathHunter CB1 β-Arrestin Assay: Chinese hamster ovary K1 (CHO-K1)-PathHunter hCB1 β-arrestin cells (DiscoveRx, Fremont, CA) were seeded at 5000 cells/well in 384-well plates 24 h before use and incubated at 37° C., 5% CO2. Compounds were dissolved in dimethyl sulfoxide (DMSO) and diluted in optimized cell culture (OCC) media. Agonist EC80 was determined directly from an agonist dose—response curve (data not shown). […] Five microliters of allosteric modulator or vehicle solution was added to each well at the appropriate concentrations and incubated for 30 min. Five microliters of agonist was then added to each well followed by a 90 min incubation. Fifteen microliters of detection reagent was then added followed by further 60 min incubation at room temperature. Chemiluminescence was measured on a standard luminescence plate reader as relative light units (RLU). Basal RLU was defined as zero. […] Data were analyzed using the fourparameter variable-slope and allosteric EC50 shift nonlinear regression equations in Prism 5.0 (GraphPad, San Diego, CA).

[5] = tested on: excitatory postsynaptic currents (EPSCs)
[6] = tested on: normotensive C57Bl/6J mice; settings: 0.2% GAT1102 combined with subthreshold 0.25% WIN55,212-2, topical, at 6 and 12 hrs, n=5, P<0.05
Description: (§1) Normotensive C57Bl/6J mice and Sh3pxd2b mice were obtained from Jackson Laboratory (Bar Harbor, Maine). The Sh3pxd2b mice were bred in house, and their progenies with abnormal phenotypical morphology, identified as a nee mice, were used for experiments.
(§2) Drug was administered topically (5 μl/eye) to the right eyes, while the left eyes received vehicle control (2% DMSO+4% Tween-20 in Tocrisolve; 5 μl).
(§3) Mice were anesthetized with the isoflurane (3% induction, 1.5% maintenance). The intraocular pressure (TOP) was measured with a handheld rebound tonometer (Tonolab, Icare, Finland), calibrated to mouse. Ten recordings were taken for each eye and then averaged. The IOP readings were taken at time 0 (baseline), 1, 6 and 12 hrs after the drug/vehicle administration. All the measurements were taken at the same time of the day, in order to minimize variability related to diurnal changes in IOP.
(§4) Data was analyzed by GraphPad version 6.0 (GraphPad Software, Inc., La Jolla, CA). Paired t-tests were used to compare between eyes of the same animal. A P value of <0.05 was considered significant. […] Values are represented as a change in IOP from the baseline (time 0).

[7] = tested on: ocular hypertensive nee mice; settings: GAT1102 0.2% alone, topical, at 1 and 12 hrs, n=6, P<0.05
Description: as §1, §2, §3, §4

[8] = CB1, PAM mode, read-out: CB1 PAM mode cAMP EC50
[9] = CB1, agonist mode, read-out: CB1 Agonist mode cAMP EC50
[10] = read-out: CB1 Agonist mode cAMP Emax, CB1, agonist mode
[11] = read-out: CB1 PAM mode cAMP Emax, CB1, PAM mode
[12] = CB1, PAM mode, read-out: CB1 PAM mode β-Arrestin EC50
[13] = CB1, agonist mode, read-out: CB1 Agonist mode β-Arrestin EC50
[14] = read-out: CB1 Agonist mode β-Arrestin Emax
[15] = read-out: CB1 PAM mode β-Arrestin Emax

T1 sequence (P34972 whole entry, species assumed): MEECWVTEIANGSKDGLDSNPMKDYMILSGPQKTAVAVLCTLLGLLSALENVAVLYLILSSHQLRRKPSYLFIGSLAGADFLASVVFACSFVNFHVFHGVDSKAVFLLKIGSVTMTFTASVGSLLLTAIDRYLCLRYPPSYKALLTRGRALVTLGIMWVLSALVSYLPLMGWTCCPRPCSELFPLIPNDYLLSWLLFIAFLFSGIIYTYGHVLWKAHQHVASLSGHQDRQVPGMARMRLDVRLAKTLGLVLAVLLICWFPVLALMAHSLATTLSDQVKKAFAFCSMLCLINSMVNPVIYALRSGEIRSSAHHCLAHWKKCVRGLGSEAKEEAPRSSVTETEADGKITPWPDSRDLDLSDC

SMILES | EC50 (CB2 [1]) | Emax (CB2 [1]) | EC50 (hCB1 [2]; [8]) | EC50 (hCB1 [2]; [9]) | Emax (hCB1 [2]; [10]) | Emax (hCB1 [2]; [11]) | EC50 (CB2 [3]) | Emax (CB2 [3]) | EC50 (hCB1 [4]; [12]) | EC50 (hCB1 [4]; [13]) | Emax (hCB1 [4]; [14]) | Emax (hCB1 [4]; [15]) | CB2 Agonist mode cAMP Emax (CB2 [1]) | further results
O=C(O)CCC(c1ccccc1)c1cn(-c2ccncc2)c2ccccc12 (centres unmarked) [Compound 23, 4-Phenyl-4-(1-(pyridin-4-yl)-1H-indol-3-yl)butanoic acid] | 0.57 µM | 78% | 1.06 µM | 0.357 µM | 83% | 104% | > 10 µM | 0% | > 10 µM | > 10 µM | 0% | 0% |  | 
O=C(O)CCC(c1ccccc1)c1c[nH]c2ccccc12 (centres unmarked) [Compound 28, 4-(1H-Pndol-3-yl)-4-phenylbutanoic acid] | > 10 µM | 29% | 4.35 µM | 9.81 µM | 60% | 71% | > 10 µM | 0% | > 10 µM | > 10 µM | 0% | 0% |  | 
O=C(O)CCC(c1ccccc1)c1cn(C(=O)c2ccccc2)c2ccccc12 (centres unmarked) [Compound 29, 4-(1-Penzoyl-1H-indol-3-yl)-4-phenylbutanoic acid] | 0.419 µM | 76% | 0.709 µM | 0.596 µM | 92% | 114% | > 10 µM | 0% | > 10 µM | > 10 µM | 0% | 0% |  | 
CC(=O)CC(C)C(c1ccccc1)c1cn(-c2ccccc2)c2ccccc12 (centres unmarked) [Compound 41, 4-Methyl-5-phenyl-5-(1-phenyl-1H-indol-3-yl)pentan-2-one] | > 10 µM |  | > 10 µM | > 10 µM | 0% | 0% | > 10 µM | 0% | > 10 µM | > 10 µM | 0% | 0% | (34) % | 
CC(=O)CC(C)C(c1ccccc1)c1cn(-c2ccccc2)c2ccccc12 (centres unmarked) [Compound 42, 4-Methyl-5-phenyl-5-(1-phenyl-1H-indol-3-yl)pentan-2-one] |  |  | > 10 µM |  |  |  | > 10 µM |  |  |  |  |  | (0) % | CB1 PAM mode cAMP Emax (hCB1 [2]; CB1, PAM mode): (0) %; CB1 Agonist mode cAMP Emax (hCB1 [2]; CB1, agonist mode): (0) %; CB2 Agonist mode β-Arrestin Emax (CB2 [3]): 0%; CB1 PAM mode β-Arrestin Emax (hCB1 [4]; CB1, PAM mode): (0) %; CB1 Agonist mode β-Arrestin Emax (hCB1 [4]; CB1, agonist mode): (0) %
O=[N+]([O-])CC(c1ccccc1)c1c(-c2ccccc2)[nH]c2ccccc12 (centres unmarked) [GAT211, reference compound] | > 10 µM |  |  |  |  |  | > 10 µM |  |  |  |  |  | (0) % | CB1 PAM mode cAMP Emax (hCB1 [2]; CB1, PAM mode): (73) %; CB1 Agonist mode cAMP Emax (hCB1 [2]; CB1, agonist mode): (94) %; CB2 Agonist mode β-Arrestin Emax (CB2 [3]): 0%; CB1 PAM mode β-Arrestin Emax (hCB1 [4]; CB1, PAM mode): (59) %; CB1 Agonist mode β-Arrestin Emax (hCB1 [4]; CB1, agonist mode): (14) %
O=C(O)CCC(c1ccccc1)c1cn(-c2ccccc2)c2ccccc12 (centres unmarked) [GAT1102, 4-Phenyl-4-(1-phenyl-1H-indol-3-yl)butanoic acid] |  |  |  |  |  |  |  |  |  |  |  |  |  | agonist properties (direct inhibition of EPSCs) ([5]; 1 μM GAT1102): exhibited agonist properties in some cells; PAM effect on depolarization-induced suppression of excitation (DSE) ([5]; slowing recovery for DSE, in most cases occluded by direct inhibition): some evidence of a modest GAT1102 PAM effect; IOP compared to vehicle [6]: significantly lower; IOP change [7]: significantly decreased IOP
